Broadly, the IC50 is the midpoint of a concentration-inhibition curve.

The target of one test is T1, catalytic domain of human Bub1 (amino acids 704-1085) (Homo sapiens, UniProt O43683).
T1 construct: catalytic domain of human Bub1 (amino acids 704-1085); His6 (N); made in house; host or cells: Hi5 insect cells
T1 sequence (O43683 704-1085): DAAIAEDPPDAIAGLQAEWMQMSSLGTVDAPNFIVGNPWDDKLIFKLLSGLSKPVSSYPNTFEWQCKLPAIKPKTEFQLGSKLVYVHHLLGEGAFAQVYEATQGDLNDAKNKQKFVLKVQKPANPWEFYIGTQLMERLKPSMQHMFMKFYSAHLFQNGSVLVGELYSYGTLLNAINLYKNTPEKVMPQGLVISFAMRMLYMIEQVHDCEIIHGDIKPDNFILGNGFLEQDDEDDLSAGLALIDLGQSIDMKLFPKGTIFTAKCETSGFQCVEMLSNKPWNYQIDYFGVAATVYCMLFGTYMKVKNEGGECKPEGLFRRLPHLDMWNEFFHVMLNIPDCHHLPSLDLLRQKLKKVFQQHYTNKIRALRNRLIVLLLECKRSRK
The experiment in a line: Bub1 kinase assay (TR-FRET). In kind it is biochemical.
Conditions: not given
In short, it runs like this:
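Human Bub1 catalytic domain (704-1085, His6-tagged, Hi5-expressed, ~200 ng/mL) preincubated with compound 15 min at 22 °C, then reacted 60 min at 22 °C with 10 μM ATP and 1 μM biotinylated peptide substrate, pH 7.5. EDTA stop; TR-FRET 665/620 ratio; IC50 from 4-parameter fit, 11 concentrations in duplicate.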
For orientation: TR-FRET usually uses a lanthanide donor and a delayed reading to cut background.
`COc1cc(C(=O)Nc2cc(-c3[nH]c4c(c3Nc3ccccc3)C(=O)CN(C(=O)N3CCOCC3)C4)ccn2)ccc1F` [Example 260, 4-Fluoro-3-methoxy-N-4-[6-(morpholin-4-ylcarbonyl)-4-oxo-3(phenylamino)-4,5,6,7-tetrahydro-1H-pyrrolo[2,3-c]pyridin-2-yl]pyridin-2-ylbenzamide]: the IC50 is 0.008 µM.

Staying with this test, now noted: TR-FRET; ATP 10 μM, peptide substrate 1 μM; 60 min at 22° C.; average or median if tested more than once; read-out: Inhibition of Bub1 kinase IC50.
For `CN1CCN(C(=O)N2CC(=O)c3c([nH]c(-c4ccncc4)c3Nc3ccccc3)C2)CC1` [Example 95, 6-[(4-Methylpiperazin-1-yl)carbonyl]-3-(phenylamino)-2-(pyridin-4-yl)-1,5,6,7-tetrahydro-4H-pyrrolo[2,3-c]pyridin-4-one], the IC50 turned out to be 0.009 µM. Same read-out and setting: then `COC(=O)N1CC(=O)c2c([nH]c(-c3ccnc(NC(=O)C4CC4(F)F)c3)c2Nc2ccccc2)C1` (racemic) [Example 146, Methyl 3-anilino-2-[2-({[(1RS)-2,2-difluorocyclopropyl]carbonyl}amino)pyridin-4-yl]-4-oxo-1,4,5,7-tetrahydro-6H-pyrrolo[2,3-c]pyridine-6-carboxylate], with 0.01 µM. Still for that read-out and setting: then `O=C1CNCc2[nH]c(-c3ccncc3OCC(F)(F)F)c(Nc3ccccc3)c21` [Example 225, 3-Anilino-2-[3-(2,2,2-trifluoroethoxy)pyridin-4-yl]-1,5,6,7-tetrahydro-4H-pyrrolo[2,3-c]pyridin-4-one], with 1.02 µM. Still for that read-out and setting: in the case of `CC(=O)Nc1cc(-c2[nH]c3c(c2Nc2ccccc2)C(=O)CNC3)ccn1` [Example 24, N-{4-[4-Oxo-3-(phenylamino)-4,5,6,7-tetrahydro-1H-pyrrolo[2,3-c]pyridin-2-yl]pyridin-2-yl}acetamide] it was 0.154 µM. Regarding `CC(=O)N1CC(=O)c2c([nH]c(-c3ccncc3)c2Nc2ccccc2)C1` [Example 7, 6-Acetyl-3-(phenylamino)-2-(pyridin-4-yl)-1,5,6,7-tetrahydro-4H-pyrrolo[2,3-c]pyridin-4-one], the IC50 was determined as 0.004 µM. Still for that read-out and setting: in the case of `CC(C)OC(=O)N1CC(=O)c2c([nH]c(-c3ccnc(NC(=O)C4(F)CC4)c3)c2Nc2ccccc2)C1` [Example 159, Isopropyl 3-anilino-2-{2-([(1-fluorocyclopropyl)carbonyl]amino}pyridin-4-yl)-4-oxo-1,4,5,7-tetrahydro-6H-pyrrolo[2,3-c]pyridine-6-carboxylate] it was 0.022 µM; in that of `O=C1CN(C(=O)N2CCOCC2)Cc2[nH]c(-c3ccncc3OCC(F)(F)F)c(Nc3ccccc3)c21` [Example 245, 6-(Morpholin-4-ylcarbonyl)-3-(phenylamino)-2-[3-(2,2,2-trifluoroethoxy)pyridin-4-y]1,5,6,7-tetrahydro-4H-pyrrolo[2,3-c]pyridin-4-one], 0.073 µM. Turning to `O=C1COCc2[nH]c(-c3ccncc3Cl)c(Nc3ccccc3)c21` [Example 42, 2-(3-Chloropyridin-4-yl)-3-(phenylamino)-1,7-dihydropyrano[3,4-b]pyrrol-4(5H)-one], the IC50 was found to be 0.077 µM. On the same count and under the same terms, in the case of `CCNC(=O)N1CC(=O)c2c([nH]c(-c3ccnc(C)n3)c2Nc2ccccc2)C1` [Example 25, N-Ethyl-2-(2-methylpyrimidin-4-yl)-4-oxo-3-(phenylamino)-1,4,5,7-tetrahydro-6H-pyrrolo[2,3-c]pyridine-6-carboxamide] it was 0.254 µM; in that of `O=C1COCc2[nH]c(-c3ccncc3F)c(Nc3ccccc3)c21` [Example 33, 2-(3-Fluoropyridin-4-yl)-3-(phenylamino)-1,7-dihydropyrano[3,4-b]pyrrol-4(5H)-one], 0.017 µM; in that of `CSCCNC(=O)N1CC(=O)c2c([nH]c(-c3ccncc3)c2Nc2ccccc2)C1` [Example 87, N-[2-(Methylsulfanyl)ethyl]4-oxo-3-(phenylamino)-2-(pyridin-4-yl)-1,4,5,7-tetrahydro-6H-pyrrolo[2,3-c]pyridine-6-carboxamide], 0.011 µM.

As to `CC(=O)Nc1cc(-c2[nH]c3c(c2Nc2ccccc2)C(=O)CN(S(=O)(=O)C(C)C)C3)ccn1` [Example 171, N-{4-[3-Anilino-6-(isopropylsulfonyl)-4-oxo-4,5,6,7-tetrahydro-1H-pyrrolo[2,3-c]pyridin-2-yl]pyridin-2-yl}acetamide], the half-inhibitory concentration (IC50) came out at 0.003 µM. Turning to `CC(C)(O)C(=O)Nc1cc(-c2[nH]c3c(c2Nc2ccccc2)C(=O)COC3)ccn1` [Example 152, N-[4-(3-Anilino-4-oxo-1,4,5,7-tetrahydropyrano[3,4-b]pyrrol-2-yl)pyridin-2-yl]-2-hydroxy-2-methylpropanamide], the IC50 turned out to be 0.437 µM.

For `O=C(Nc1cc(-c2[nH]c3c(c2Nc2ccccc2)C(=O)CN(S(=O)(=O)c2cnc[nH]2)C3)ccn1)c1cncs1` [Example 161, N-{4-[3-Anilino-6-(1H-imidazol-5-ylsulfonyl)-4-oxo-4,5,6,7-tetrahydro-1H-pyrrolo[2,3-c]pyridin-2-yl]pyridin-2-yl}-1,3-thiazole-5-carboxamide], the IC50 came to 0.005 µM. For `COc1cc(C(=O)Nc2cc(-c3[nH]c4c(c3Nc3ccccc3)C(=O)CNC4)ccn2)ccc1F` [Example 257], the IC50 stood at 0.035 µM. The same measure, in the same setting: in the case of `CNC(=O)N1CC(=O)c2c([nH]c(-c3ccncc3OCC3CC3)c2Nc2ccccc2)C1` [Example 251, 2-[3-(Cyclopropylmethoxy)pyridin-4-yl]-N-methyl-4-oxo-3-(phenylamino)-1,4,5,7-tetrahydro-6H-pyrrolo[2,3-c]pyridine-6-carboxamide] it was 0.012 µM. Consider `CS(=O)(=O)N1CC(=O)c2c([nH]c(-c3ccncc3)c2Nc2ccccc2)C1` [Example 19, 6-(Methylsulfonyl)-3-(phenylamino)-2-(pyridin-4-yl)-1,5,6,7-tetrahydro-4H-pyrrolo[2,3-c]pyridin-4-one], for which the IC50 was found to be 0.008 µM. Same read-out and setting: in the case of `CN1CCN(C(=O)N2CC(=O)c3c([nH]c(-c4ccncc4OCC(F)(F)F)c3Nc3ccccc3)C2)CC1` [Example 246, 6-[(4-Methylpiperazin-1-yl)carbonyl]-3-(phenylamino)-2-[3-(2,2,2-trifluoroethoxy)pyridin-4-yl]-1,5,6,7-tetrahydro-4H-pyrrolo[2,3-c]pyridin-4-one] it was 0.319 µM; in that of `CS(=O)(=O)N1CC(=O)c2c([nH]c(-c3ccnc(NC(=O)C4CC4(F)F)c3)c2Nc2ccccc2)C1` (racemic) [Example 149, (1RS)—N-{4-[3-Anilino-6-(methylsulfonyl)-4-oxo-4,5,6,7-tetrahydro-1H-pyrrolo[2,3-c]pyridin-2-yl]pyridin-2-yl}-2,2-difluorocyclopropanecarboxamide], 0.004 µM. In the case of `CNC(=O)N1CC(=O)c2c([nH]c(-c3ccnc(NC(C)=O)c3)c2Nc2ccccc2)C1` [Example 168, 2-(2-Acetamidopyridin-4-yl)-3-anilino-N-methyl-4-oxo-1,4,5,7-tetrahydro-6H-pyrrolo[2,3-c]pyridine-6-carboxamide], the IC50 amounted to 0.005 µM.

For `CNC(=O)N1CC(=O)c2c([nH]c(-c3ccncc3OCC(F)F)c2Nc2ccccc2)C1` [Example 237, 2-[3-(2,2-Difluoroethoxy)pyridin-4-yl]-N-methyl-4-oxo-3-(phenylamino)-1,4,5,7-tetrahydro-6H-pyrrolo[2,3-c]pyridine-6-carboxamide], the IC50 came to 0.018 µM. The same measure, in the same setting: in the case of `CC(=O)Nc1cc(-c2[nH]c3c(c2Nc2ccccc2)C(=O)CN(C(=O)CC(C)(C)O)C3)ccn1` [Example 177, N-{4-[3-Anilino-6-(3-hydroxy-3-methylbutanoyl)-4-oxo-4,5,6,7-tetrahydro-1H-pyrrolo[2,3-c]pyridin-2-yl]pyridin-2-yl}acetamide] it was 0.023 µM; in that of `CCOC(=O)N1CC(=O)c2c([nH]c(-c3ccnc(NC(C)=O)c3)c2Nc2ccccc2)C1` [Example 183, Ethyl 2-(2-acetamidopyridin-4-yl)-3-anilino-4-oxo-1,4,5,7-tetrahydro-6H-pyrrolo[2,3-c]pyridine-6-carboxylate], 0.009 µM; in that of `CC(=O)Nc1cc(-c2[nH]c3c(c2Nc2ccccc2)C(=O)CN(S(=O)(=O)N(C)C)C3)ccn1` [Example 254, N-4-[6(Dimethylsulfamoyl)-4-oxo-3-(phenylamino)-4,5,6,7-tetrahydro-1H-pyrrolo[2,3-c]pyridin-2-yl]pyridin-2-ylacetamide], 0.004 µM. The same measure, in the same setting: in the case of `CC(=O)Nc1cc(-c2[nH]c3c(c2Nc2ccccc2)C(=O)CN(C(=O)N2CCOCC2)C3)ccn1` [Example 125, N-{4-[3-Anilino-6-(morpholin-4-ylcarbonyl)-4-oxo-4,5,6,7-tetrahydro-1H-pyrrolo[2,3-c]pyridin-2-yl]pyridin-2-yl}acetamide] it was 0.01 µM; in that of `CC(=O)Nc1cc(-c2[nH]c3c(c2Nc2ccccc2)C(=O)CN(C(=O)c2ccncc2)C3)ccn1` [Example 116, N-{4-[4-Oxo-3-(phenylamino)-6-(pyridin-4-ylcarbonyl)-4,5,6,7-tetrahydro-1H-pyrrolo[2,3-c]pyridin-2-yl]pyridin-2-yl}acetamide], 0.026 µM.

Turning to `CSCC(=O)Nc1cc(-c2[nH]c3c(c2Nc2ccccc2)C(=O)COC3)ccn1` [Example 46, 2-(Methylsulfanyl)-N-{4-[4-oxo-3-(phenylamino)-1,4,5,7-tetrahydropyrano[3,4-b]pyrrol-2-yl]pyridin-2-yl}acetamide], the 50% inhibitory concentration (IC50) was 0.093 µM. Still for that read-out and setting: then `Cc1ccc(Nc2c(-c3ccnc(N)c3)[nH]c3c2C(=O)CN(C(=O)OC(C)(C)C)C3)cc1` [Example 294, tert-butyl 2-(2-Aminopyridin-4-yl)-3-[(4-methylphenyl)amino]-4-oxo-1,4,5,7-tetrahydro-6H-pyrrolo[2,3-c]pyridine-6-carboxylate], with 0.499 µM; and `O=C(Nc1cc(-c2[nH]c3c(c2Nc2ccccc2)C(=O)COC3)ccn1)c1cncs1` [Example 51, N-{4-[4-Oxo-3-(phenylamino)-1,4,5,7-tetrahydropyrano[3,4-b]pyrrol-2-yl]pyridin-2-yl}-1,3-thiazole-5-carboxamide], with 0.044 µM.

The values above are taken from patent US20200216439A1, “HETERO-1,5,6,7-TETRAHYDRO-4H-INDOL-4-ONES” (BAYER PHARMA AKTIENGESELLSCHAFT, priority 2015, published 2020).
